What was measured:
[1] = test system: IMR-32 neuroblastoma cells; test: neuroprotection against 6-OHDA-induced LDH release; type: cell-based, human; conditions: IMR-32, compound 50 µM, 1 h pretreatment, 200 µM 6-OHDA, 24 h
Experimental: (§1) All cell culture protocols and assay conditions were applied as we reported previously. SH-SY5Y (ATCC® CRL-2266™) cell line was purchased from ATCC (Manassas, VA, USA). IMR-32 (ATCC® CCL-127™) cell line was kindly provided by the Department of Oncogenomics, Academisch Medisch Centrum, Amsterdam, Holland. Before each test SH-SY5Y or IMR-32 cells were seeded in 96-well plates with transparent bottom at a concentration of 2.5 × 10^4 cells/well in 100 μL of respective cell culture medium and cultured for 24 h to reach 70% confluence. • Cell Viability
(§2) CytoTox-ONE™ Homogeneous Membrane Integrity Assay, which based on the LDH release, was purchased from Promega (Madison, WI, USA). SH-SY5Y or IMR-32 cells were seeded in 96-well white plates with transparent bottom. For neuroprotective studies, the cells were preincubated first for 1 h with compound 1, 8 or reference antioxidants AA, TX (all at the concentration of 50 μM) and next the neurotoxin 6-OHDA (Sigma-Aldrich, Inc., St. Louis, MO, USA) was added at final concentration of 50 μM (SH-SY5Y assay) or 200 µM (IMR-32 assay). After 24 h of incubation, the CytoTox-ONE™ was added to each well and the cells were incubated next for 10 min at room temperature. The fluorescence was measured using a microplate reader EnSpire (PerkinElmer, Waltham, MA, USA) with an excitation wavelength of 560 nm and an emission wavelength of 590 nm. All measurements were performed in triplicate and results are shown as mean ± SD. The similar studies were also performed with SH-SY5Y cells injured by 100 μM of 6-OHDA (Figure S1, Supporting Materials). • ROS Assay

[2] = test system: SH-SY5Y neuroblastoma cells; test: neuroprotection against 6-OHDA-induced LDH release; type: cell-based, human; conditions: compound 50 µM
Experimental: as §1, §2

[3] = ferric reducing antioxidant power (FRAP) assay; conditions: % of ascorbic acid activity; compounds and AA at 1 mM
Experimental: The total antioxidant potential of aryl-substituted phenylalanine derivatives was determined using FRAP assay. The FRAP reagent was prepared first by mixing acetate buffer (300 mM, pH 3.6), a solution of 10 mM TPTZ (2,4,6-tripyridyl-s-triazine, Sigma-Aldrich, Inc., St. Louis, MO, USA) in 40 mM HCl and 20 mM of iron (III) chloride hexahydrate (FeCl3 × 6H2O, Chempur, Piekary Śląskie, Poland) at 10:1:1 (v/v/v). The FRAP reagent (190 μL) and 1 mM of tested compound (10 μL) was added next to each well, mixed and incubated for 30 min. The absorbance was measured using a microplate reader EnSpire (PerkinElmer, Waltham, MA USA) at 593 nm. AA (1 mM, AMARA, Kraków, Poland) was used as the reference antioxidant. The results were expressed as % of ascorbic acid activity (%AAA). Analyses were performed in triplicate. • ORAC-FL

native AMPA receptors = conditions: cited from earlier work; for Ki / IC50: native AMPA receptors, rat brain membranes, mean of three experiments; for Ki: read-out: [3H]AMPA Ki; for IC50: read-out: [3H]AMPA IC50 (footnote 4: IC50 values)
[4] = oxygen radical absorbance capacity fluorescent (ORAC-FL) assay; conditions: Trolox equivalent, calculated at 5 µM of compounds and Trolox
Experimental: The ORAC-FL was performed according to procedure described in the literature. The reagents used in this assay, TX, fluorescein and 2,2′-azobis(2-amidinopropane) dihydrochloride (AAPH), were purchased from Sigma-Aldrich, Inc., St. Louis, MO, USA. The prepared ORAC-FL reagent consisted of 0.3 μM of fluorescein and 100 µM of AAPH dissolved in PBS buffer. The compounds and the reference antioxidant TX were tested at the concentration 2.5 µM and the results were compared to the blank in which no antioxidant was present. The assays were performed in black 96-well plates. The fluorescence readings were taken by a microplate reader EnSpire (PerkinElmer, Waltham, MA, USA) every minute for a duration of 240 min. The excitation wavelength was 485 nm and the emission wavelength was 520 nm. The area under the fluorescence decay curve (AUC) was calculated next by GraphPad Prism™ software (version 5.01, San Diego, CA, USA). All measurements were performed in triplicate. The TX equivalent (TE) was calculated next using the following Equation (1):TE = [(AUCsample − AUCblank)/(AUCTX − AUCblank)] × [CTX/Csample](1)

[5] = 1 h pretreatment, 50 µM 6-OHDA, 24 h

| SMILES | 6-OHDA-induced release of LDH (neuroprotection) [1] | 6-OHDA-induced release of LDH (neuroprotection) ([2]; 100 µM 6-OHDA) | 6-OHDA-induced release of LDH (neuroprotection) [2, 5] | FRAP (%AAA) [3] [%AAA] | selectivity over NMDA and KA receptors (native AMPA receptors) | Ki (native AMPA receptors) [µM] | ORAC (TE) [4] [TE] | IC50 (native AMPA receptors) [µM] |
| --- | --- | --- | --- | --- | --- | --- | --- | --- |
| O=C1O[C@H]([C@@H](O)CO)C(O)=C1O [AA, ascorbic acid, reference compound] | no statistically significant neuroprotective effect | neuroprotective effect was not observed | no statistically significant neuroprotective effect |  |  |  |  |  |
| NC(Cc1cc(-c2cncc(O)c2)c(Cl)c([N+](=O)[O-])c1)C(=O)O (centres unmarked) [Compound 2] |  |  |  | 691.21 | high selectivity | 2 | 3.15 |  |
| NC(Cc1cc(Cl)c(O)c(-c2cccc(O)c2)c1)C(=O)O (centres unmarked) [Compound 3] |  |  |  | 311.56 |  | 7.9 | 4.61 |  |
| NC(Cc1cc(Cl)c(Cl)c(-c2ccc(O)c(O)c2)c1)C(=O)O (centres unmarked) [Compound 4] |  |  |  | 177.23 |  |  | 4.02 | 12 |
| NC(Cc1cc(-c2ccc(O)cc2)cc([N+](=O)[O-])c1)C(=O)O (centres unmarked) [Compound 5] |  |  |  | 96.32 |  | 21 | 4.32 |  |
| Nc1ccc(CC(N)C(=O)O)cc1-c1cccc(O)c1 (centres unmarked) [Compound 6] |  |  |  | 67.35 |  | 9.1 | 6.09 |  |
| NC(Cc1cc(Cl)cc(-c2ccc(O)cc2)c1)C(=O)O (centres unmarked) [Compound 7] |  |  |  | 49.39 |  | 46 | 3.29 |  |
| NC(Cc1cc(-c2cccc(O)c2)cc([N+](=O)[O-])c1)C(=O)O (centres unmarked) [Compound 9] |  |  |  | 43.43 |  | 8.2 | 4.67 |  |
| NC(Cc1ccc([N+](=O)[O-])c(-c2cccc(O)c2)c1)C(=O)O (centres unmarked) [Compound 10] |  |  |  | 32.04 |  | 21 | 1.43 |  |
| NC(Cc1cc(Cl)c(Cl)c(-c2cc(O)cc(O)c2)c1)C(=O)O (centres unmarked) [Compound 11] |  |  |  | 28.90 |  |  | 4.18 | 16 |
| Nc1c(-c2cccc(O)c2)cc(CC(N)C(=O)O)cc1[N+](=O)[O-] (centres unmarked) [Compound 12] |  |  |  | 24.93 |  | 14 | 4.27 |  |
| NC(Cc1ccc(Cl)c(-c2cccc(O)c2)c1)C(=O)O (centres unmarked) [Compound 13] |  |  |  | 24.08 |  | 9.2 | 2.86 |  |
| Nc1c(Cl)cc(CC(N)C(=O)O)cc1-c1cccc(O)c1 (centres unmarked) [Compound 14] |  |  |  | 23.80 |  | 10 | 4.75 |  |
| NC(Cc1cc(Cl)c(Cl)c(-c2ccc(O)cc2)c1)C(=O)O (centres unmarked) [Compound 15] |  |  |  | 13.70 |  |  | 1.45 | 33 |
| NC(Cc1cc(Cl)c(Cl)c(-c2ccccc2O)c1)C(=O)O (centres unmarked) [Compound 16] |  |  |  | 10.32 |  |  | 1.54 | 85 |
| NC(Cc1ccc(Cl)c(-c2ccc(O)cc2)c1)C(=O)O (centres unmarked) [Compound 17] |  |  |  | 9.13 |  | 65 | 1.96 |  |
| NC(Cc1cc(-c2cccc(O)c2)c(Cl)c([N+](=O)[O-])c1)C(=O)O (centres unmarked) [Compound 18] |  |  |  | 6.29 | high selectivity | 3.1 | 1.34 |  |
| NC(Cc1cccc(-c2cccc(O)c2)c1)C(=O)O (centres unmarked) [Compound 19] |  |  |  | 4.94 |  |  | 1.96 | 9.9 |
| NC(Cc1ccc([N+](=O)[O-])c(-c2ccc(O)cc2)c1)C(=O)O (centres unmarked) [Compound 20] |  |  |  | 4.41 |  | 64 | 1.62 |  |
| NC(Cc1cc(-c2ccc(O)cc2)c(Cl)c([N+](=O)[O-])c1)C(=O)O (centres unmarked) [Compound 21] |  |  |  | 2.76 |  | 23 | 2.56 |  |
| COc1c(Cl)cc(CC(N)C(=O)O)cc1-c1cccc(O)c1 (centres unmarked) [Compound 22] |  |  |  | 2.76 |  | > 100 | 1.38 |  |
| Cc1c(C)c2c(c(C)c1O)CCC(C)(C(=O)O)O2 (centres unmarked) [TX, Trolox, reference compound] | no statistically significant neuroprotective effect | neuroprotective effect was not observed | no statistically significant neuroprotective effect |  |  |  |  |  |
